Measured values as given in US20120156137A1, “COMPOSITION FOR TREATMENT OF ATOPIC DERMATITIS COMPRISING GLUCOSAMINE AND DERIVATIVES THEREOF AND A METHOD FOR TREATMENT OF ATOPIC DERMATITIS USING THEM” (priority 2006, published 2012).

Assays:
[1] = test system: TPA-induced mouse ear edema model; assay: Anti-inflammatory activity of glucosamine orally administered to the TPA-induced mouse ear edema model; format: in vivo; settings: male ICR mice; oral 5, 10 or 20 mg/kg glucosamine 15 min and 6 hrs after TPA; read 24 hrs after TPA
Experimental: Ear edema was induced in mice using 12-O-tetradecanoylphorbol 13-acetate (TPA), as follows. TPA was prepared at 2.5[…]/20[…] in acetone. ICR mice were prepared one week before this test and allowed free access to food and water in order to minimize the stress of transport. 20[…] of the TPA solution was applied onto right ears of male ICR mice (7 weeks old). After 24 hrs, mice were sacrificed by cervical dislocation, and the right ears were punched using a 6-mm biopsy punch. The ear punches were weighed using a microbalance, finely teased, and subjected to a myeloperoxidase (MPO) assay. Thirty five male ICR mice (7 weeks old, weighing 25-32 g) were divided into seven groups, each of which consisted of five mice. Experimental animals were allowed free access to food and water for one week in order to minimize the stress of transport. Glucosamine and a control drug were diluted in sterile physiological saline. Group 1 was not treated with TPA or any drug. Group 2 was treated with TPA alone on the right ear skin thereof. Group 3 was topically applied with TPA, and then orally administered through a sonde with 0.5 ml of glucosamine in sterile physiological saline 15 min and 6 hrs after TPA application. […]

[2] = test system: transglutaminase; settings: as described in Korean Pat. Application No. 10-2006-56942; cited from earlier work
[3] = test system: TPA-induced mouse ear edema model; assay: Anti-inflammatory activity of glucosamine topically applied to the TPA-induced mouse ear edema model; format: in vivo; settings: male ICR mice; topical 0.5%, 1% or 2% glucosamine 15 min and 6 hrs after TPA; read 24 hrs after TPA
Experimental: Ear edema was induced in mice using 12-O-tetradecanoylphorbol 13-acetate (TPA), as follows. TPA was prepared at 2.5[…]/20[…] in acetone. ICR mice were prepared one week before this test and allowed free access to food and water in order to minimize the stress of transport. 20[…] of the TPA solution was applied onto right ears of male ICR mice (7 weeks old). After 24 hrs, mice were sacrificed by cervical dislocation, and the right ears were punched using a 6-mm biopsy punch. The ear punches were weighed using a microbalance, finely teased, and subjected to a myeloperoxidase (MPO) assay. Thirty male ICR mice (7 weeks old, weighing 25-32 g) were divided into six groups, each of which consisted of five mice. Experimental animals were allowed free access to food and water for one week in order to minimize the stress of transport. Glucos amine and a control drug were diluted in sterile distilled water and then diluted 1:9 in acetone. Group 1 was not treated with TPA or any drug. Group 2 was treated with TPA alone on the right ear skin thereof. Group 3 was topically treated with TPA, and then with 20[…] of 0.5% glucosamine in sterile distilled water/acetone (1:9) 15 min and 6 hrs after TPA application. According to the same procedure as in Group 3, Group 4 was topically treated with 1% glucosamine, and Group 5 with 2% glucosamine. […]

[4] = test system: atopy patients; assay: Clinical test for therapeutic effects of glucosamine on atopy; format: in vivo, human; settings: twenty atopy patients
Experimental: A clinical test was performed with twenty atopy patients in order to determine whether glucosamine has therapeutic effects on atopy in practice. The clinical test was conducted by the Department of Dermatology, Dongguk University Hospital (attending physician: A Y Lee; the clinical test was approved by an IRB of Dongguk University Hospital). Twenty atopy patients were dosed with glucosamine in the form of a tablet and a cream. In brief, glucosamine was orally administered at a daily dose of 500 mg for a period of two weeks. The cream (5% glucosamine) was topically applied to a desired site of the skin twice a day for a period of four weeks.

## N[C@H]1C(O)O[C@H](CO)[C@@H](O)[C@@H]1O (some centres unmarked) [glucosamine]
[1]
  inhibition of acute inflammation (ear punch weight and MPO activity, FIGS. 3 and 4): inhibited acute inflammation regardless of the concentration thereof
[2]
  inhibitory activity toward transglutaminase: has inhibitory activity toward transglutaminase
[3]
  inhibition of acute inflammation (ear punch weight and MPO activity, FIGS. 1 and 2): inhibit acute inflammation regardless of concentrations thereof
[4]; cream (5% glucosamine) topically twice a day for four weeks
  therapeutic effects on atopy, external use (FIG. 5): significant therapeutic effects on atopy
[4]; tablet, oral daily dose 500 mg for two weeks
  therapeutic effects on atopy, oral administration (FIG. 5): significant therapeutic effects on atopy
